According to patent US8357707B2, “2-carboxamide cycloamino ureas” (Novartis AG, priority 2009, dated 2013):

How the values were obtained:
Type in all cases: biochemical
PI3Kγ = target: T1, PI3Kγ (Homo sapiens, UniProt P48736, Q459R); test: PI3K KinaseGlo assay, PI3Kgamma; conditions: 150 nM enzyme, 1 μM ATP, 90 mins
T1 construct: Constructs lacking the N-terminal 144 aa; His tag (C); made in house; host or cells: Tn5 insect cells, baculovirus BV950; construct from the Roger Williams lab (MRC LMB)
T1 sequence (P48736 with tags, fused parts or gaps Q459R): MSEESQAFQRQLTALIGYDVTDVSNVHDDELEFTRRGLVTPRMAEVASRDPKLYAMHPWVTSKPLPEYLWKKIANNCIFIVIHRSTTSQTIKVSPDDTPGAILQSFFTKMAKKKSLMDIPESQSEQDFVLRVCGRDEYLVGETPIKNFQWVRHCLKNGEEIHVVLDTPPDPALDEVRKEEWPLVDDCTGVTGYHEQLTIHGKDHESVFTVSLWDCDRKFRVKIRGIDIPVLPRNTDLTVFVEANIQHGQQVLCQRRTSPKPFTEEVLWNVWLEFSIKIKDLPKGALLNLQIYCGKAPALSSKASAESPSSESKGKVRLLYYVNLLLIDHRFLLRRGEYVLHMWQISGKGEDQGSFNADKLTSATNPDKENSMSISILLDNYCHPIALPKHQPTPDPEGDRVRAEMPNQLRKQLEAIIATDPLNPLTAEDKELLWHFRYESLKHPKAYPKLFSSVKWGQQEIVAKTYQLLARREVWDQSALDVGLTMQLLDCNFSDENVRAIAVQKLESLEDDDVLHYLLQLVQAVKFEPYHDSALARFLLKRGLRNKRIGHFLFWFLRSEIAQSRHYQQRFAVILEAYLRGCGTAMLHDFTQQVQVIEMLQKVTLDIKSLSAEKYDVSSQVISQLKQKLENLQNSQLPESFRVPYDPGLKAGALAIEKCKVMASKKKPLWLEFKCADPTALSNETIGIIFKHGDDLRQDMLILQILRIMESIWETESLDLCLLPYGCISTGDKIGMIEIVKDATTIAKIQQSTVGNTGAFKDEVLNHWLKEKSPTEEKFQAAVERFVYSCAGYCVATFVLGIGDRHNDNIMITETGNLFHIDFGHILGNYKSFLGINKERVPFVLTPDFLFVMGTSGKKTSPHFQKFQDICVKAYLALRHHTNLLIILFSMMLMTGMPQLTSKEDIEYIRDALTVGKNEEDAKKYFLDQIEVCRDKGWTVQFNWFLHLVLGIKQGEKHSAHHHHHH

PI3Kα = target: T2, PI3Kα (Homo sapiens, UniProt P42336); test: PI3K KinaseGlo assay, PI3Kalpha; conditions: 10 nM enzyme, 1 μM ATP, 30 mins
T2 construct: His tag (C); made in house; host or cells: Tn5 insect cells, baculovirus BV-1075
T2 sequence (P42336 with tags, fused parts or gaps): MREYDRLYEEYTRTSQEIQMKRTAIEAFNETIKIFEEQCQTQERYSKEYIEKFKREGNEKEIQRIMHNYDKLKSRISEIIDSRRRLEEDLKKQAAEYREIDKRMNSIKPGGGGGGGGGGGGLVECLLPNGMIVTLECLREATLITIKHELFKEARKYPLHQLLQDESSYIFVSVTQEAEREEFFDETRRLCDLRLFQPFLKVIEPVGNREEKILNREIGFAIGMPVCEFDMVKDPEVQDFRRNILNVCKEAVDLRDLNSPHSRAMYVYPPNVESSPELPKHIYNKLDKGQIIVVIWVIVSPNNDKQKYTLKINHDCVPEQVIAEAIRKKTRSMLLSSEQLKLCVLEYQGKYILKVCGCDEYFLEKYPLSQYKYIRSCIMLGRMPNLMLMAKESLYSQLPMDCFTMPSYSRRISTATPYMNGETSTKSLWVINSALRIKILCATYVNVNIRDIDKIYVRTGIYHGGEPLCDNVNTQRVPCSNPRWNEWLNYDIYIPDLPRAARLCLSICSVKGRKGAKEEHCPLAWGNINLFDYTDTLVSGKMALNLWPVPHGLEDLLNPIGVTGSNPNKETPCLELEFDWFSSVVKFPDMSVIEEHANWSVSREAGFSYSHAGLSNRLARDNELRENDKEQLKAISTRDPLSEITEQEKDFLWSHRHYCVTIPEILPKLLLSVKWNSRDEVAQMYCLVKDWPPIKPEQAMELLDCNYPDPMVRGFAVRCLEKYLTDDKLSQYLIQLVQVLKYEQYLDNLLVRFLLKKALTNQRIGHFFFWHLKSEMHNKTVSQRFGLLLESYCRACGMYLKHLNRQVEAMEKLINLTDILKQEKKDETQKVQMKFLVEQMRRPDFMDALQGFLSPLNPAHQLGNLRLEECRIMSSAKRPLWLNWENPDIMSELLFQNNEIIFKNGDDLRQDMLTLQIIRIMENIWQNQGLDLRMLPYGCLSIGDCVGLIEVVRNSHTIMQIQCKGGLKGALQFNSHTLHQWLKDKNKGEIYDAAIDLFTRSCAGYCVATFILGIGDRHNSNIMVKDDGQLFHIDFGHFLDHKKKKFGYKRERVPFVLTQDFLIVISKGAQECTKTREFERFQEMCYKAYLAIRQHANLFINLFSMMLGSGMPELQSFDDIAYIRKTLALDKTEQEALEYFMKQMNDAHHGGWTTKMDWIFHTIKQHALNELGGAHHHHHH

PI3Kβ = target: T3, PI3Kβ (Homo sapiens, UniProt P42338); test: PI3K KinaseGlo assay, PI3Kbeta; conditions: 25 nM enzyme, 1 μM ATP, 30 mins
T3 construct: His tag (C); made in house; host or cells: Tn5 insect cells, baculovirus BV949 (vector LR280)
T3 sequence (P42338 with tags, fused parts or gaps): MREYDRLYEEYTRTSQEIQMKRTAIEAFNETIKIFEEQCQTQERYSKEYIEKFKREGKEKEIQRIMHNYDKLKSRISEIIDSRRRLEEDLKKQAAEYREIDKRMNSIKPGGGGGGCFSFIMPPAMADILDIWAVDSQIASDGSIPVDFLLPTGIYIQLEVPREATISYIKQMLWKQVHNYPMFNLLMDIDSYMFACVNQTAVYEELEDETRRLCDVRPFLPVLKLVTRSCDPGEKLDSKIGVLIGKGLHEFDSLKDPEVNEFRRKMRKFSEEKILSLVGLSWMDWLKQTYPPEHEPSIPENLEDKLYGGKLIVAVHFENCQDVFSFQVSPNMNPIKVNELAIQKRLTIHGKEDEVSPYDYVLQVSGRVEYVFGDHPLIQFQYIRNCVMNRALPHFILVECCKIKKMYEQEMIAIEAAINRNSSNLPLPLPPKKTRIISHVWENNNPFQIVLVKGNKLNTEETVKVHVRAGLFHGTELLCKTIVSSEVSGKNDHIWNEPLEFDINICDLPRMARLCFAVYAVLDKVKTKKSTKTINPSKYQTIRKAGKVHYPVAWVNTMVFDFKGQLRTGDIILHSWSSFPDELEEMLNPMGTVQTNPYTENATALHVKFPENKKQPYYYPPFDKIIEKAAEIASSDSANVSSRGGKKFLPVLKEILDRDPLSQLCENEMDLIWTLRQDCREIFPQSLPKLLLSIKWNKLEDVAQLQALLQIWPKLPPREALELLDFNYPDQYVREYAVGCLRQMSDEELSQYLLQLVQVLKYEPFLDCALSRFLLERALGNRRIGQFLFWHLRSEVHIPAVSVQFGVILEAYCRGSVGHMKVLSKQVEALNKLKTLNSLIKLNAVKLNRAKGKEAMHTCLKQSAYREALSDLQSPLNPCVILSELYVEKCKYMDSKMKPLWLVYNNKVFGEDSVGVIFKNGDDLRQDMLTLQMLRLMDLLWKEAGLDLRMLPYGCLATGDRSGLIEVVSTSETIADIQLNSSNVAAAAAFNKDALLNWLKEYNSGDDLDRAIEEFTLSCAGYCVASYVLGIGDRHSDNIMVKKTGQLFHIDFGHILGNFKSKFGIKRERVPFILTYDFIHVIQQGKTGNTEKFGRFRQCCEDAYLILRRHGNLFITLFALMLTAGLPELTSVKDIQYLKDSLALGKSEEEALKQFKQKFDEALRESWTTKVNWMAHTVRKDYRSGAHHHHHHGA

PI3Kδ = target: T4, PI3Kδ (Homo sapiens, UniProt O00329); test: PI3K KinaseGlo assay, PI3Kdelta; conditions: 10 nM enzyme, 1 μM ATP, 30 mins
T4 construct: His tag (C); made in house; host or cells: Tn5 insect cells, baculovirus BV1060 (vector LR415)
T4 sequence (O00329 with tags, fused parts or gaps): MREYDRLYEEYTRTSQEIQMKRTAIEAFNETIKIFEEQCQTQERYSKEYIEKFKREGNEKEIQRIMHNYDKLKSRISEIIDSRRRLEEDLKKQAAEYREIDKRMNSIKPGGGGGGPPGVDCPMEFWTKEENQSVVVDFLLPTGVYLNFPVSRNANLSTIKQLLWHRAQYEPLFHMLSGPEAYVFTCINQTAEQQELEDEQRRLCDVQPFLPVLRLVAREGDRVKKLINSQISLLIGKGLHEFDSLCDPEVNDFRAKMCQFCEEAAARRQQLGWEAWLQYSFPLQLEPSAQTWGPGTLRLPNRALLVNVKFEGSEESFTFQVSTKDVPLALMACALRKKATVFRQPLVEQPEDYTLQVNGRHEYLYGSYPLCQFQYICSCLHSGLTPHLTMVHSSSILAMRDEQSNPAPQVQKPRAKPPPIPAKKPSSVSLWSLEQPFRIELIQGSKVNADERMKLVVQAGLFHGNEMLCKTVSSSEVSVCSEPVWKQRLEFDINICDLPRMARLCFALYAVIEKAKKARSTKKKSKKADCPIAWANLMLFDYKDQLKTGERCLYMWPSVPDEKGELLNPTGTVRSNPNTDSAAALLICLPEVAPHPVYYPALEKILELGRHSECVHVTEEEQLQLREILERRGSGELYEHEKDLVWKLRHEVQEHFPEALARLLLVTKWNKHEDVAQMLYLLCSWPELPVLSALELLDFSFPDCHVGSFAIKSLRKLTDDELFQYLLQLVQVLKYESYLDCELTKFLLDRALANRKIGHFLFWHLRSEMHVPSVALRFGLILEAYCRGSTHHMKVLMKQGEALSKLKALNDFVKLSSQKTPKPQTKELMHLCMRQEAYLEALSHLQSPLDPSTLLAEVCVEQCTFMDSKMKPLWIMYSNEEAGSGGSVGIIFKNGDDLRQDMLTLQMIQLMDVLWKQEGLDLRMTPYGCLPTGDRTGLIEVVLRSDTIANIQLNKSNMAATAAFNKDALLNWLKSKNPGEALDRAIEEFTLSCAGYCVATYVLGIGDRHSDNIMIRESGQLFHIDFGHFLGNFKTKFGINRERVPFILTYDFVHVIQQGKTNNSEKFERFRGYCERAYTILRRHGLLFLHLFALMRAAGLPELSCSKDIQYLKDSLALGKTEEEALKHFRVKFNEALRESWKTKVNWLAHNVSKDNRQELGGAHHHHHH

Structure (SMILES)	IC50 (PI3Kγ)	IC50 (PI3Kα)	IC50 (PI3Kβ)	IC50 (PI3Kδ)
CCN(CC)c1ncc2c(n1)-c1sc(NC(=O)N3CCC[C@@]3(CO)C(N)=O)nc1CC2 [Example 8, (R)-2-Hydroxymethyl-pyrrolidine-1,2-dicarboxylic acid 2-amide 1-[(8-diethylamino-4,5-dihydro-thiazolo[4,5-h]quinazolin-2-yl)-amide]]	0.18 µM	0.0095 µM	0.276 µM	0.198 µM
CC(C)(C)c1ncc2c(n1)-c1sc(NC(=O)N3CCC[C@@]3(CO)C(N)=O)nc1CC2 [Example 9, (R)-2-Hydroxymethyl-pyrrolidine-1,2-dicarboxylic acid 2-amide 1-[(8-tert-butyl-4,5-dihydro-thiazolo[4,5-h]quinazolin-2-yl)-amide]]	0.141 µM	0.0085 µM	0.087 µM	0.072 µM
CN(Cc1cccc(F)c1)C[C@@]1(C(N)=O)CCCN1C(=O)Nc1nc2c(s1)-c1nc(C(C)(C)C)ncc1CC2 [Example 10, (R)-2-{[(3-Fluoro-benzyl)-methyl-amino]-methyl}-pyrrolidine-1,2-dicarboxylic acid 2-amide 1-[(8-tert-butyl-4,5-dihydro-thiazolo[4,5-h]quinazolin-2-yl)-amide]]	0.282 µM	0.018 µM	0.449 µM	0.054 µM
CCN(CC)c1ncc2c(n1)-c1sc(NC(=O)N3CC[C@H]3C(N)=O)nc1CC2 [Example 13, (S)-Azetidine-1,2-dicarboxylic acid 2-amide 1-[(8-diethylamino-4,5-dihydro-thiazolo[4,5-h]quinazolin-2-yl)-amide]]	0.104 µM	0.009 µM	0.277 µM	0.118 µM
CC(=O)NC[C@@H]1CCN(C(=O)Nc2nc3c(s2)-c2nc(C(C)(C)C)ncc2CC3)[C@@H]1C(N)=O [Example 36, (2S,3S)-3-(Acetylamino-methyl)-pyrrolidine-1,2-dicarboxylic acid 2-amide 1-[(8-tert-butyl-4,5-dihydro-thiazolo[4,5-h]quinazolin-2-yl)-amide]]	–	0.012 µM	0.51 µM	0.04 µM
CC(C)(C)c1ncc2c(n1)-c1sc(NC(=O)N3CC[C@@H](O)[C@H]3C(N)=O)nc1CC2 [Example 38, (2S,3R)-3-Hydroxy-pyrrolidine-1,2-dicarboxylic acid 2-amide 1-[(8-tert-butyl-4,5-dihydro-thiazolo[4,5-h]quinazolin-2-yl)-amide]]	–	0.009 µM	0.866 µM	0.044 µM
CC(C)(C)c1nc2c(s1)CCc1nc(NC(=O)N3CC[C@@H](CN4CCOCC4)[C@H]3C(N)=O)sc1-2 [Example 41, (2S,3S)-3-Morpholin-4-ylmethyl-pyrrolidine-1,2-dicarboxylic acid 2-amide 1-[(7-tert-butyl-4,5-dihydro-benzo[1,2-d;3,4-d′]bisthiazol-2-yl)-amide]]	–	0.024 µM	3.05 µM	0.496 µM
COC[C@@H]1CCN(C(=O)Nc2nc3c(s2)-c2nc(C(C)(C)C)ncc2CC3)[C@@H]1C(N)=O [Example 42, (2S,3R)-3-Methoxymethyl-pyrrolidine-1,2-dicarboxylic acid 2-amide 1-[(8-tert-butyl-4,5-dihydro-thiazolo[4,5-h]quinazolin-2-yl)-amide]]	–	0.008 µM	0.409 µM	0.032 µM
COC[C@@H]1CCN(C(=O)Nc2nc3c(s2)-c2nc(C(C)(C)C(F)(F)F)ncc2CC3)[C@@H]1C(N)=O [Example 45, (2S,3R)-3-Methoxymethyl-pyrrolidine-1,2-dicarboxylic acid 2-amide 1-{[8-(2,2,2-trifluoro-1,1-dimethyl-ethyl)-4,5-dihydro-thiazolo[4,5-h]quinazolin-2-yl]-amide}]	–	0.0065 µM	0.061 µM	0.024 µM
COC[C@@H]1CCN(C(=O)Nc2nc3c(s2)-c2nc(C(C)(C)C(F)(F)F)sc2CC3)[C@@H]1C(N)=O [Example 50, (2S,3R)-3-Methoxymethyl-pyrrolidine-1,2-dicarboxylic acid 2-amide 1-{[7-(2,2,2-trifluoro-1,1-dimethyl-ethyl)-4,5-dihydro-benzo[1,2-d;3,4-d′]bisthiazol-2-yl]-amide}]	–	0.009 µM	0.555 µM	0.113 µM

More lines, now with the values ahead:

IC50 (PI3Kγ)	IC50 (PI3Kα)	IC50 (PI3Kβ)	IC50 (PI3Kδ)	Structure (SMILES)
0.09 µM	0.0055 µM	0.332 µM	0.03 µM	CCN(CC)c1ncc2c(n1)-c1sc(NC(=O)N3CC[C@H](C)[C@H]3C(N)=O)nc1CC2 [Example 2, (2S,3S)-3-Methyl-pyrrolidine-1,2-dicarboxylic acid 2-amide 1-[(8-diethylamino-4,5-dihydro-thiazolo[4,5-h]quinazolin-2-yl)-amide]]
0.176 µM	0.0065 µM	0.143 µM	0.22 µM	CCN(CC)c1ncc2c(n1)-c1sc(NC(=O)N3CCC[C@@]3(C)C(N)=O)nc1CC2 [Example 4, (S)-2-Methyl-pyrrolidine-1,2-dicarboxylic acid 2-amide 1-[(8-diethylamino-4,5-dihydro-thiazolo[4,5-h]quinazolin-2-yl)-amide]]
0.153 µM	0.0055 µM	0.047 µM	0.046 µM	CCN(CC)c1ncc2c(n1)-c1sc(NC(=O)N3CCC[C@@]3(COC)C(N)=O)nc1CC2 [Example 5, (R)-2-Methoxymethyl-pyrrolidine-1,2-dicarboxylic acid 2-amide 1-[(8-diethylamino-4,5-dihydro-thiazolo[4,5-h]quinazolin-2-yl)-amide]]
0.23 µM	0.006 µM	0.516 µM	0.053 µM	CCN(CC)c1ncc2c(n1)-c1sc(NC(=O)N3CCC[C@H]3C(N)=O)nc1CC2 [Example 12, (S)-Pyrrolidine-1,2-dicarboxylic acid 2-amide 1-[(8-diethylamino-4,5-dihydro-thiazolo[4,5-h]quinazolin-2-yl)-amide]]
–	0.004 µM	0.182 µM	0.019 µM	CC(C)(C)c1ncc2c(n1)-c1sc(NC(=O)N3CC[C@@H](CN4CCOCC4)[C@H]3C(N)=O)nc1CC2 [Example 37, (2S,3S)-3-Morpholin-4-ylmethyl-pyrrolidine-1,2-dicarboxylic acid 2-amide 1-[(8-tert-butyl-4,5-dihydro-thiazolo[4,5-h]quinazolin-2-yl)-amide]]
–	0.0055 µM	1.15 µM	0.157 µM	C[C@@H]1CCN(C(=O)Nc2nc3c(s2)-c2cc(C(C)(C)C)ncc2OC3)[C@@H]1C(N)=O [Example 46, (2S,3R)-3-Methyl-pyrrolidine-1,2-dicarboxylic acid 2-amide 1-[(8-tert-butyl-4H-5-oxa-1-thia-3,7-diaza-cyclopenta[a]naphthalen-2-yl)-amide]]
–	0.003 µM	6.17 µM	1.62 µM	CN(C)C[C@@H]1CCN(C(=O)Nc2nc3c(s2)-c2cc(C(C)(C)C)ncc2OC3)[C@@H]1C(N)=O [Example 47, (2S,3S)-3-Dimethylaminomethyl-pyrrolidine-1,2-dicarboxylic acid 2-amide 1-[(8-tert-butyl-4H-5-oxa-1-thia-3,7-diaza-cyclopenta[a]naphthalen-2-yl)-amide]]
–	0.006 µM	0.92 µM	0.019 µM	C[C@@H]1CCN(C(=O)Nc2nc3c(s2)-c2cc(C(C)(C)C(F)(F)F)ncc2OC3)[C@@H]1C(N)=O [Example 48, (2S,3R)-3-Methyl-pyrrolidine-1,2-dicarboxylic acid 2-amide 1-{[8-(2,2,2-trifluoro-1,1-dimethyl-ethyl)-4H-5-oxa-1-thia-3,7-diaza-cyclopenta[a]naphthalen-2-yl]-amide}]
